This note sets out measurements from patent US20240360137A1 (Novartis AG, priority 2023, published 2024).

Broadly, the IC50 is the concentration at which inhibition is half-maximal.

Assay in all cases: CDKi biochemical assay (TR-FRET, phosphorylation of S780 on RB1 peptide)
(In TR-FRET formats the signal depends on donor and acceptor labels being close together.)

For assay [1], the target named is CDK6/cyclinD3 (Homo sapiens, UniProt Q00534). As to conditions: CDK6/cyclinD3 10 pM, 1 mM ATP, 60 min at 25° C. The procedure, abridged: (§1)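 Avi-tagged, biotinylated CDK4/cyclinD1 (20 pM) or CDK6/cyclinD3 (10 pM) phosphorylates 200 nM His-MBP-RB1[773-924] at S780 with 1 mM ATP in HEPES pH 7.5/MgCl2, 60 min, 25° C. After EDTA quench, Eu anti-pRB(S780)/SA-APC TR-FRET is read after 3 h. Apparent IC50 comes from % activity versus log concentration.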

Assay [2] addresses CDK4/cyclinD1 (Homo sapiens, UniProt P11802). As to conditions: CDK4/cyclinD1 20 pM, 1 mM ATP, 60 min at 25° C. The procedure, abridged:
as §1

In assay [3] the target is CDK2/CyclinE1 (Homo sapiens, UniProt P24941). As to conditions: CDK2/CyclinE1 100 pM, 1 mM ATP, 60 min at 25° C. The gist of the method:
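CDK2/CyclinE1 (Avi-tag, 100 pM; CDK2 E. coli-expressed) phosphorylated His-MBP-RB1[773-924] (200 nM) at S780 with 1 mM ATP in HEPES pH 7.5/MgCl2/DTT, 60 min at 25° C. After EDTA quench, TR-FRET detection ran 3 h (Eu anti-p-RB S780, SA-APC). Apparent IC50 came from percent activity versus log concentration.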

Assay [4] addresses CDK1/CyclinB1 (Homo sapiens, UniProt P06493). The following applies: CDK1/CyclinB1 10 pM, 1 mM ATP, 60 min at 25° C. The procedure, abridged:
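CDK1/CyclinB1 (10 pM, Avi-tagged, insect-cell expressed) phosphorylated S780 of His-MBP-RB1[773-924] (200 nM) with 1 mM ATP in HEPES pH 7.5, 10 mM MgCl2, 1 mM DTT, 60 min at 25 °C. After EDTA quench, TR-FRET detection (Eu anti-pRB S780, SA-APC) for 3 h; apparent IC50 from percent activity versus log concentration.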

As to `O=C1N([C@@H]2CCC[C@@H](O)C2)c2nc(Nc3c[nH]nc3-c3cnn4ccncc34)ncc2C12CC2` [Example 64, 7′-((1R,3R)-3-hydroxycyclohexyl)-2′-((3-(pyrazolo[1,5-a]pyrazin-3-yl)-1H-pyrazol-4-yl)amino)spiro[cyclopropane-1,5′-pyrrolo[2,3-d]pyrimidin]-6′(7′H)-one], the IC50 worked out at 6.49 µM in assay [1], 4.7 µM in assay [2], 12 nM in assay [3] and 2.19 µM in assay [4].
The corresponding values for `C[C@]1(O)C[C@H](COc2n[nH]cc2Nc2ncc3c(n2)N([C@@H]2CCC[C@@H](O)C2)C(=O)C32CC2)C1` [Example 65, 2′-((3-(((1r,3R)-3-hydroxy-3-methylcyclobutyl)methoxy)-1H-pyrazol-4-yl)amino)-7′-((1R,3R)-3-hydroxycyclohexyl)spiro[cyclopropane-1,5′-pyrrolo[2,3-d]pyrimidin]-6′(7′H)-one] are at least 10 µM, 6.9 µM, 53 nM and 4.49 µM.
The like results for `O=C1N([C@@H]2CCC[C@@H](O)C2)c2nc(Nc3c[nH]nc3OC[C@H]3COCCO3)ncc2C12CC2` [Example 66, 2′-((3-(((R)-1,4-dioxan-2-yl)methoxy)-1H-pyrazol-4-yl)amino)-7′-((1R,3R)-3-hydroxycyclohexyl)spiro[cyclopropane-1,5′-pyrrolo[2,3-d]pyrimidin]-6′(7′H)-one] were, in that order, at least 10 µM, at least 10 µM, 51 nM and 4.22 µM.
The like results for `N#CC1(COc2n[nH]cc2Nc2ncc3c(n2)N([C@@H]2CCC[C@@H](O)C2)C(=O)C32CC2)CC1` [Example 67, 1-(((4-((7′-((1R,3R)-3-hydroxycyclohexyl)-6′-oxo-6′,7′-dihydrospiro[cyclopropane-1,5′-pyrrolo[2,3-d]pyrimidin]-2′-yl)amino)-1H-pyrazol-3-yl)oxy)methyl)cyclopropane-1-carbonitrile] were, in that order, at least 10 µM, 6.91 µM, 23 nM and 4.13 µM.
On to `CSCc1n[nH]cc1Nc1ncc2c(n1)N([C@@H]1CCC[C@@H](O)C1)C(=O)C21CC1` [Example 68, 7′-((1R,3R)-3-hydroxycyclohexyl)-2′-((3-((methylthio)methyl)-1H-pyrazol-4-yl)amino)spiro[cyclopropane-1,5′-pyrrolo[2,3-d]pyrimidin]-6′(7′H)-one], for which the IC50 came out at 7.6 µM in assay [1], 4.15 µM in assay [2], 7 nM in assay [3] and 0.97 µM in assay [4].
The like results for `O=C1N([C@@H]2CCC[C@@H](O)C2)c2nc(Nc3c[nH]nc3O[C@H]3CC3(F)F)ncc2C12CC2` [Example 69] were, in that order, 6.03 µM, 2.61 µM, 6 nM and 0.8 µM.
The corresponding values for `O=C1N([C@@H]2CCC[C@@H](O)C2)c2nc(Nc3c[nH]nc3O[C@@H]3CC3(F)F)ncc2C12CC2` [Example 70, 2′-((3-((R)-2,2-difluorocyclopropoxy)-1H-pyrazol-4-yl)amino)-7′-((1R,3R)-3-hydroxycyclohexyl)spiro[cyclopropane-1,5′-pyrrolo[2,3-d]pyrimidin]-6′(7′H)-one] are at least 10 µM, 7.69 µM, 6 nM and 0.82 µM.
The like results for `O=C1N([C@@H]2CCC[C@@H](O)C2)c2nc(Nc3c[nH]nc3OC[C@@H]3CCOC3)ncc2C12CC2` [Example 71, 7′-((1R,3R)-3-hydroxycyclohexyl)-2′-((3-(((R)-tetrahydrofuran-3-yl)methoxy)-1H-pyrazol-4-yl)amino)spiro[cyclopropane-1,5′-pyrrolo[2,3-d]pyrimidin]-6′(7′H)-one] were, in that order, at least 10 µM, at least 10 µM, 44 nM and 7.59 µM.
As to `O=C1N([C@@H]2CCC[C@@H](O)C2)c2nc(Nc3c[nH]nc3OC[C@H]3CCOC3)ncc2C12CC2` [Example 72, 7′-((1R,3R)-3-hydroxycyclohexyl)-2′-((3-(((S)-tetrahydrofuran-3-yl)methoxy)-1H-pyrazol-4-yl)amino)spiro[cyclopropane-1,5′-pyrrolo[2,3-d]pyrimidin]-6′(7′H)-one], the IC50 in assay [1] was at least 10 µM; in assay [2], at least 10 µM; in assay [3], 61 nM; in assay [4], 7.5 µM.
For `O=C1N([C@@H]2CCC[C@@H](O)C2)c2nc(Nc3c[nH]nc3-c3cnn4c3CCCC4)ncc2C12CC2` [Example 73, 7′-((1R,3R)-3-hydroxycyclohexyl)-2′-((3-(4,5,6,7-tetrahydropyrazolo[1,5-a]pyridin-3-yl)-1H-pyrazol-4-yl)amino)spiro[cyclopropane-1,5′-pyrrolo[2,3-d]pyrimidin]-6′(7′H)-one], the IC50 in assay [1] was at least 10 µM; in assay [2], at least 10 µM; in assay [3] it was 49 nM; in assay [4], at least 10 µM.
`O=C1N([C@@H]2CCC[C@@H](O)C2)c2nc(Nc3c[nH]nc3OC3CCOCC3)ncc2C12CC2` [Example 74, 7′-((1R,3R)-3-hydroxycyclohexyl)-2′-((3-((tetrahydro-2H-pyran-4-yl)oxy)-1H-pyrazol-4-yl)amino)spiro[cyclopropane-1,5′-pyrrolo[2,3-d]pyrimidin]-6′(7′H)-one]: the IC50 is at least 10 µM in assay [1], at least 10 µM in assay [2], 255 nM in assay [3] and at least 10 µM in assay [4].
With `O=C1N([C@@H]2CCC[C@@H](O)C2)c2nc(Nc3c[nH]nc3OC[C@H]3COC[C@H]3F)ncc2C12CC2` [Example 75, 2′-((3-((-4-fluorotetrahydrofuran-3-yl)methoxy)-1H-pyrazol-4-yl)amino)-7′-((1R,3R)-3-hydroxycyclohexyl)spiro[cyclopropane-1,5′-pyrrolo[2,3-d]pyrimidin]-6′(7′H)-one], the IC50 in assay [1] was at least 10 µM; in assay [2] it was at least 10 µM; in assay [3] it was 72 nM; in assay [4], 9.16 µM.
As for `O=C1N([C@@H]2CCC[C@@H](O)C2)c2nc(Nc3c[nH]nc3OCC3COCC3(F)F)ncc2C12CC2` (stereo partly drawn) [Example 76, 2′-((3-((4,4-difluorotetrahydrofuran-3-yl)methoxy)-1H-pyrazol-4-yl)amino)-7′-((1R,3R)-3-hydroxycyclohexyl)spiro[cyclopropane-1,5′-pyrrolo[2,3-d]pyrimidin]-6′(7′H)-one], the IC50 in assay [1] is at least 10 µM; in assay [2], 7.27 µM; in assay [3], 32 nM; in assay [4], 3.29 µM.
The corresponding values for `O=C1N([C@@H]2CCC[C@@H](O)C2)c2nc(Nc3c[nH]nc3O)ncc2C12CC2` [Example 77, 2′-((3-hydroxy-1H-pyrazol-4-yl)amino)-7′-((1R,3R)-3-hydroxycyclohexyl)spiro[cyclopropane-1,5′-pyrrolo[2,3-d]pyrimidin]-6′(7′H)-one] are 5.26 µM, 1.48 µM, 121 nM and 5.82 µM.
The like results for `O=C1N([C@@H]2CCC[C@@H](O)C2)c2nc(Nc3c[nH]nc3O[C@H]3CCOC3)ncc2C12CC2` [Example 78, 7′-((1R,3R)-3-hydroxycyclohexyl)-2′-((3-(((S)-tetrahydrofuran-3-yl)oxy)-1H-pyrazol-4-yl)amino)spiro[cyclopropane-1,5′-pyrrolo[2,3-d]pyrimidin]-6′(7′H)-one] were, in that order, 3.54 µM, 2.6 µM, 17 nM and 2.54 µM.
The corresponding values for `Cn1ccc(-c2n[nH]cc2Nc2ncc3c(n2)N([C@@H]2CCC[C@@H](O)C2)C(=O)C32CC2)n1` [Example 79, 7-((1R,3R)-3-hydroxycyclohexyl)-2′-((1′-methyl-1H,1′H-[3,3′-bipyrazol]-4-yl)amino)spiro[cyclopropane-1,5′-pyrrolo[2,3-d]pyrimidin]-6′(7′H)-one] are at least 10 µM, at least 10 µM, 50 nM and at least 10 µM.
In the case of `Cn1cc(-c2n[nH]cc2Nc2ncc3c(n2)N([C@@H]2CCC[C@@H](O)C2)C(=O)C32CC2)cn1` [Example 80, 7′-((1R,3R)-3-hydroxycyclohexyl)-2′-((1′-methyl-1H,1′H-[3,4′-bipyrazol]-4-yl)amino)spiro[cyclopropane-1,5′-pyrrolo[2,3-d]pyrimidin]-6′(7′H)-one], the IC50 in assay [1] was at least 10 µM; in assay [2] it was 9.3 µM; in assay [3] it was 29 nM; in assay [4] it was 6.01 µM.
